Reference: US6127379A, “Benzopyran, benzothiopyran and benzofuran derivatives as 5-HT4 antagonists” (SmithKline Beecham p.l.c., priority 1994, dated 2000)
Counter-ions that a name gives are not always drawn.

Experiments:
5-HT4 receptor [1] = target: T1, 5-HT4 receptor (Cavia porcellus, UniProt O70528); assay: Guinea pig colon longitudinal muscle-myenteric plexus, 5-HT-evoked contraction; assay type: cell-based; conditions: guinea pig distal colon
T1 construct: guinea pig distal colon longitudinal muscle-myenteric plexus, 5-HT-evoked contraction
Description: (§1) 5-HT4 RECEPTOR ANTAGONIST ACTIVITY
Male guinea-pigs, weighing 250-400g are used. Longitudinal muscle-myentericplexus preparations, approximately 3 cm long, are obtained from the distal colon region. These are suspended under a 0.5 g load in isolated tissue baths containing Krebs solution bubbled with 5%, CO2 in O2 and maintained at 37° C. In all experiments, the Krebs solution also contains methiothepin 10^-7 M and granisetron 10^-6 M to block effects at 5-HT1, 5-HT2 and 5-HT3 receptors.
After construction of a simple concentration-response curve with 5-HT, using 30 s contact times and a 15 min dosing cycle, a concentration of 5-HT is selected so as to obtain a contraction of the muscle approximately 40-70% maximum(10^-9 M approx). The tissue is then alternately dosed every 15 min with this concentration of 5-HT and then with an approximately equi-effective concentration of the nicotine receptor stimulant, dimethylphenylpiperazinium (DMPP). After obtaining consistent responses to both 5-HT and DMPP, increasing concentrations of a putative 5-HT4 receptor antagonist are then added to the bathing solution. The effects of this compound are then determined as a percentage reduction of the contractions evoked by 5-HT or by DMPP. […] A compound which reduces the response to 5-HT but not to DMPP is believed to act as a 5-HT4 receptor antagonist.

5-HT4 receptor [2] = target: 5-HT4 receptor (Sus scrofa, UniProt Q6Q253); assay: Piglet atria spontaneous beating screen; assay type: cell-based; conditions: piglet spontaneously beating atria
Description: as §1
Compounds were tested in the piglet spontaneous beating screen (Naunyn-Schmiedeberg's Arch. Pharmacol 342, 619-622). pKB (-log10 KB) value for the compound of Examples 3 and 7 were 9.8 and 7.7 respectively.

5-HT4 receptor [3] = assay: 5-HT-induced motility in dog gastric pouch; assay type: in vivo; conditions: dose of 10 μg kg^-1
Description: as §1
4) 5-HT-induced motility in dog gastric pouch
Compounds are tested in the in vivo method described in "Stimulation of canine motility by BRL 24924, a new gastric prokinetic agent", Bermudez et al, J. Gastrointestinal Motility, 2(4), 281-286.

T1 sequence (O70528 whole entry): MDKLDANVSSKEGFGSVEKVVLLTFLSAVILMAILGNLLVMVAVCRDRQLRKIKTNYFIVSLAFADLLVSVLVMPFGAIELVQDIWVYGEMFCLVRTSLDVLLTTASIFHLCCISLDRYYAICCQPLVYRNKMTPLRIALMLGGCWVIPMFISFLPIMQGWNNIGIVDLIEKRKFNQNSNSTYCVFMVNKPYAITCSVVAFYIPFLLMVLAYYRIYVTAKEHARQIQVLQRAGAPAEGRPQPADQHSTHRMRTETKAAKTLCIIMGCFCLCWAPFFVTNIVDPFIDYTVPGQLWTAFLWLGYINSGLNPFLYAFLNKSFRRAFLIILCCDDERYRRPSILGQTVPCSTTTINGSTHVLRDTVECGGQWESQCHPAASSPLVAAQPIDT
Sequence of 5-HT4 receptor (Sus scrofa, UniProt Q6Q253) (Q6Q253 1-402): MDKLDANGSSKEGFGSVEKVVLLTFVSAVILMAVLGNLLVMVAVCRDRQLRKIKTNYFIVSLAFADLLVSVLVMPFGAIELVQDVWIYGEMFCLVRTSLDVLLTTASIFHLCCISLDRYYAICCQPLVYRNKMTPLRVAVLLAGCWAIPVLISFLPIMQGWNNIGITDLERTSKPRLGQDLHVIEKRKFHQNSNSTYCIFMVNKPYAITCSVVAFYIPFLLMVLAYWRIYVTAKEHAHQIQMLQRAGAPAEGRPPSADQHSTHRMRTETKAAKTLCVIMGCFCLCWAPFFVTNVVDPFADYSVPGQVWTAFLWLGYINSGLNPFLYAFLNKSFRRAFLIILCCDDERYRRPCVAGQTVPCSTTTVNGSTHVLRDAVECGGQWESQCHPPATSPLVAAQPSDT

SMILES | 5-HT4 receptor antagonist activity (in words) (5-HT4 receptor [1]) | pKB (-log10 KB) (5-HT4 receptor [2]) | inhibition of 5-HT-induced motility (5-HT4 receptor [3])
CCCCN1CCC(COC(=O)c2cc(Cl)cc3c2OCCC3)CC1 [Example E3, (1-Butyl-4-piperidyl)methyl-6-chloro-[2H]-3,4-dihydro-1-benzopyran-8-carboxylate] | particularly good activity | 9.8 | showed inhibition
CCCCN1CCC(CNC(=O)c2cc(Cl)cc3c2OCCC3)CC1 [Example E8, (1-Butyl-4-piperidyl)methyl-6-chloro-[2H]-3,4-dihydro-1-benzopyran-8-carboxamide hydrochloride] | particularly good activity |  | 
CCCCN1CCC(CNC(=O)c2cc(Cl)c(N)c3c2OCCC3)CC1 [Example E12, 5-Amino-(1-butyl-4-piperidyl)methyl-6-chloro-[2H]-3,4-dihydro-1-benzopyran-8-carboxamide] | particularly good activity |  | 
O=C(OCCN1CCCCC1)c1cc(Cl)cc2c1OCCC2 [Example E7, (1-Piperidyl)ethyl-6-chloro-[2H]-3,4-dihydro-1-benzopyran-8-carboxylate hydrochloride] |  | 7.7 | 
